Test results taken from US4125615A, “2-[4-(P-Aminobenzyl)-1-piperazinyl]-8-ethyl-5,8-dihydro-5-oxopyrido[2,3-d]p y” (priority 1976, dated 1978).
Converted amounts (≈) assume the structure as drawn. Like-named read-outs stand apart in the source and are kept apart here.

Columns and labels:
[1] = system: Escherichia coli K-12; test: In vitro antibacterial activity (MIC), Escherichia coli K-12; format: cell-based
Method: (§1) (1) In vitro antibacterial activity against 9 strains of bacteria (Gram-positive bacteria: 4 strains, Gram-negative bacteria: 5 strains)
(§2) The test compounds were dissolved in distilled water at a concentration of 1 mg/ml with equimolar NaOH. Then graded concentrations (300, 100, 30, 10, 3 μg/ml, etc.) were made by serial dilution with distilled water. Each solution of test compound (0.5 ml) was pipetted into 4.5 ml of medium in a tube. The media used were Brain Heart Infusion Broth, pH 7.4, for Streptococcus and nutrient broth [10 g of Polypepton, 10 g of Meat Extract, and 2.5 g of NaCl in 1 liter of distilled water], pH 7.0, for the other bacteria. One drop of a bacterial suspension freshly cultured and diluted so as to contain 10 to 100 minimal growing units in the medium was inoculated into the tube. The tubes were incubated at 37° C. for 48 hours. The minimal inhibitor concentration (MIC) was defined as the lowest concentration in which no visible growth of the bacteria was detected.

[2] = system: Staphylococcus aureus No. 50774; test: In vivo efficacy against the intravenous infection of mice by Staphylococcus aureus No. 50774; conditions: NO.50774, 336 h, male ddY mice, iv infection 6 LD50, oral, twice (5 minutes and 6 hours after infection), survival after 2 weeks
Method: (2) in vivo efficacy against the intravenous infection of mice by Staphylococcus aureus No. 50774
(§3) Each group of 8 male mice (ddY strain, approximately 20 g) was intravenously infected with 6 LD50 of Staphylococcus aureus No. 50774 in 0.85% saline. The test compounds were each suspended in 0.2% carboxymethyl cellulose and administered orally in graded doses (200, 100, 50, 25, 12.5, 6.3, 3.1 mg/kg, etc.) to the infected mice twice, about 5 minutes and 6 hours after infection. Survival rates were determined after 2 weeks and the ED50 was calculated in accordance with Probit method.

[3] = system: Staphylococcus aureus; conditions: Antimicrob. Agents Chemother.; cited from earlier work
[4] = system: Staphylococcus aureus No. 10; test: In vitro antibacterial activity (MIC), Staphylococcus aureus No. 10; format: cell-based
Method: as §1, §2

[5] = system: mice; test: in vivo
From the text: (§4) (5) acute toxicity in mice
(§5) Female ddY strain mice, weighing 25 to 33 g, were used. Test compounds were suspended in 0.2% carboxymethyl cellulose for oral administration, and dissolved in NaOH solution (final pH 8.8-9.2) for intravenous administration.

[6] = in vivo; conditions: mouse, in vivo, female ddY mice, Behrens-Kaerber method
From the text: as §4, §5

[7] = system: Shigella sonnei EW33; test: In vitro antibacterial activity (MIC), Shigella sonnei EW33; format: cell-based; conditions: nutrient broth pH 7.0, 37° C., 48 hours
Method: as §1, §2

[8] = system: Salmonella typhimurium S-9; test: In vitro antibacterial activity (MIC), Salmonella typhimurium S-9; format: cell-based; conditions: Salmonella enterica
Method: as §1, §2

[9] = system: Streptococcus pyogenes A65; test: In vitro antibacterial activity (MIC), Streptococcus pyogenes A65; format: cell-based; conditions: Brain Heart Infusion Broth pH 7.4, 37° C., 48 hours
Method: as §1, §2

[10] = system: Escherichia coli P-5101; test: In vitro antibacterial activity (MIC), Escherichia coli P-5101; format: cell-based
Method: as §1, §2

[11] = system: Proteus vulgaris OX-19; test: In vitro antibacterial activity (MIC), Proteus vulgaris OX-19; format: cell-based
Method: as §1, §2

[12] = system: Staphylococcus aureus No. 50774; test: In vitro antibacterial activity (MIC), Staphylococcus aureus No. 50774; format: cell-based
Method: as §1, §2

[13] = system: Escherichia coli P-5101; test: In vivo efficacy against the intraperitoneal infection of mice by Escherichia coli p-5101; conditions: P5101, 336 h, male ddY mice, ip infection 9 LD50, 4% gastric mucin, oral, twice (5 minutes and 6 hours after infection), survival after 2 weeks
Method: as §3
(4) in vivo efficacy against the intraperitoneal infection of mice by Escherichia coli p-5101
Each group of 8 male mice (ddY strain, approximately 20 g) was intraperitoneally infected with 9 LD50 of Escherichia coli p-5101 suspended in Trypto-Soy Broth supplemented with 4% gastric mucin. The subsequent procedures were the same as those described in (2).

[14] = system: Staphylococcus aureus Terajima; test: In vitro antibacterial activity (MIC), Staphylococcus aureus Terajima; format: cell-based
Method: as §1, §2

[15] = system: Streptococcus pyogenes A65; test: In vivo efficacy against the intraperitoneal infection of mice by Streptococcus pyogenes A65; conditions: A65, 336 h, male ddY mice, ip infection 4 LD50, oral, twice (5 minutes and 6 hours after infection), survival after 2 weeks
Method: as §3
(3) In vivo efficacy against the intraperitoneal infection of mice by Streptococcus pyogenes A65
Each group of 8 male mice (ddY strain, approximately 20 g) was intraperitoneally infected with 4 LD50 of Streptococcus pyogenes A65 suspended in Brain Heart Infusion Broth. The subsequent procedures were the same as those described in (2).

[16] = system: Staphylococcus aureus; conditions: compounds of U.S. Pat. Nos. 3,887,557 and 3,950,338; cited from earlier work
[17] = system: Staphylococcus aureus; conditions: compounds of U.S. Pat. Nos. 3,887,557 and 3,950,338; cited from earlier work; remark: listed apart in the source
[18] = system: Gram-positive and Gram-negative bacteria; test: Antibacterial activity against Gram-positive and Gram-negative bacteria (summary statement); conditions: in words
[19] = K12, Escherichia coli K-12, nutrient broth pH 7.0, 37° C., 48 hours, read-out: MIC
[20] = Staphylococcus aureus No. 10, nutrient broth pH 7.0, 37° C., 48 hours, read-out: MIC
[21] = oral, 7 days, read-out: LD50 (oral administration)
[22] = P5101, Escherichia coli P-5101, nutrient broth pH 7.0, 37° C., 48 hours, read-out: MIC
[23] = OX19, Proteus vulgaris OX-19, nutrient broth pH 7.0, 37° C., 48 hours, read-out: MIC
[24] = Staphylococcus aureus No. 50774, nutrient broth pH 7.0, 37° C., 48 hours, read-out: MIC
[25] = Staphylococcus aureus Terajima, nutrient broth pH 7.0, 37° C., 48 hours, read-out: MIC
[26] = Escherichia coli, K12, 48 h, pH 7
[27] = Proteus vulgaris, OX19, 48 h, pH 7
[28] = Staphylococcus aureus, NO.50774, 48 h, pH 7
[29] = Escherichia coli, P5101, 48 h, pH 7

Compound | MIC [1, 19] [µg/mL] | ED50 [2] [mg/kg] | effect on systemic infection by Staphylococcus aureus [3] | MIC [4, 20] [µg/mL] | LD50 at 168 h [6, 21] [mg/kg] | MIC [7] [µg/mL] | MIC ([8]; TYPHIMURIUM, 48 h, pH 7) [µg/mL] | MIC [9] [µg/mL] | MIC [10, 22] [µg/mL] | MIC [11, 23] [µg/mL] | MIC [12, 24] [µg/mL] | ED50 [13] [mg/kg] | MIC [14, 25] [µg/mL] | ED50 [15] [mg/kg] | MIC [1, 26] [µg/mL] | in vivo activities against Staphylococcus aureus [16] | MIC [11, 27] [µg/mL] | MIC [12, 28] [µg/mL] | in vitro activities against Staphylococcus aureus [17] | MIC [10, 29] [µg/mL] | other results
CCn1cc(C(=O)O)c(=O)c2cnc(N3CCCC3)nc21 [Compound PA, 2-pyrrolidino-8-ethyl-5,8-dihydro-5-oxopyrido [2,3-d]pyrimidine-6-carboxylic acid] | 1 (≈ 3.47 µM) | > 200 | only extremely weak effect | 10 (≈ 34.7 µM) | > 2000 | 3 (≈ 10.4 µM) | 3 (≈ 10.4 µM) | 300 (≈ 1040 µM) | 10 (≈ 34.7 µM) | 1 (≈ 3.47 µM) | 10 (≈ 34.7 µM) | 36.6 | 10 (≈ 34.7 µM) | > 100 | – | – | – | – | – | – | LD50 (intravenous administration) ([5]; female ddY mice, iv, NaOH solution final pH 8.8-9.2, 7 days, Behrens-Kaerber method): 268 mg/kg
CCn1cc(C(=O)O)c(=O)c2cnc(N3CCN(Cc4ccccc4)CC3)nc21 [Compound 1, 2-(4-Benzyl-1-piperazinyl)-8-ethyl-5,8-dihydro-5-oxopyrido[2,3-d]-pyrimidine-6-carboxylic acid] | – | ~50 | – | 10 (≈ 25.4 µM) | – | 3 (≈ 7.62 µM) | 3 (≈ 7.62 µM) | 100 (≈ 254 µM) | 10 (≈ 25.4 µM) | – | – | – | 10 (≈ 25.4 µM) | > 100 | 3 (≈ 7.62 µM) | weak | 3 (≈ 7.62 µM) | 3 (≈ 7.62 µM) | relatively strong | – | –
CCn1cc(C(=O)O)c(=O)c2cnc(N3CCN(Cc4ccc(OC)cc4)CC3)nc21 [Compound 2, 2-[4-(p-Methoxybenzyl)-1-piperazinyl]-8-ethyl-5,8-dihydro-5-oxopyrido[2,3-d]pyrimidine-6-carboxylic acid] | – | 54.5 | – | 10 (≈ 23.6 µM) | – | 3 (≈ 7.08 µM) | 3 (≈ 7.08 µM) | 100 (≈ 236 µM) | 10 (≈ 23.6 µM) | 10 (≈ 23.6 µM) | – | – | 10 (≈ 23.6 µM) | > 100 | 3 (≈ 7.08 µM) | weak | – | 3 (≈ 7.08 µM) | relatively strong | – | –
CCn1cc(C(=O)O)c(=O)c2cnc(N3CCN(Cc4ccc(N)cc4)CC3)nc21 [Compound AT-1826, 2-[4-(p-Aminobenzyl)-1-piperazinyl]-8-ethyl-5,8-dihydro-5-oxopyrido[2,3-d]pyrimidine-6-carboxylic acid] | – | 7.2 | – | – | > 2000 | 1 (≈ 2.45 µM) | 3 (≈ 7.34 µM) | 30 (≈ 73.4 µM) | – | – | – | 35.6 | – | 47.7 | 1 (≈ 2.45 µM) | – | 3 (≈ 7.34 µM) | 1 (≈ 2.45 µM) | – | 3 (≈ 7.34 µM) | MIC ([4]; Staphylococcus aureus, NO.10, 48 h, pH 7): 3 µg/mL (≈ 7.34 µM); toxicity ([5]; in words): low toxicity; LD50 at 168 h ([6]; iv, NaOH solution final pH 8.8-9.2, 7 days, read-out: LD50 (intravenous administration)): 354 mg/kg; antibacterial activities against Gram-positive and Gram-negative bacteria [18]: excellent antibacterial activities; MIC ([14]; Staphylococcus aureus, 48 h, pH 7): 3 µg/mL (≈ 7.34 µM)
CCn1cc(C(=O)O)c(=O)c2cnc(N3CCN(Cc4ccc(Cl)cc4)CC3)nc21 [Compound 3, 2-[4-(p-Chlorobenzyl)-1-piperazinyl]-8-ethyl-5,8-dihydro-5-oxopyrido[2,3-d]pyrimidine-6-carboxylic acid] | 10 (≈ 23.4 µM) | > 100 | – | 10 (≈ 23.4 µM) | – | 3 (≈ 7.01 µM) | – | 30 (≈ 70.1 µM) | 30 (≈ 70.1 µM) | 10 (≈ 23.4 µM) | – | – | 10 (≈ 23.4 µM) | > 100 | – | weak | – | 3 (≈ 7.01 µM) | relatively strong | – | MIC ([8]; Salmonella typhimurium S-9, nutrient broth pH 7.0, 37° C., 48 hours, read-out: MIC): 10 µg/mL (≈ 23.4 µM)
CCn1cc(C(=O)O)c(=O)c2cnc(N3CCNCC3)nc21 [Compound PPA, 2-(1-piperazinyl)-8-ethyl-5,8-dihydro-5-oxopyrido [2,3-d]pyrimidine-6-carboxylic acid] | – | 238 | only extremely weak effect | 10 (≈ 33 µM) | – | 1 (≈ 3.3 µM) | 1 (≈ 3.3 µM) | 100 (≈ 330 µM) | – | – | 10 (≈ 33 µM) | 21.2 | 30 (≈ 98.9 µM) | > 100 | 1 (≈ 3.3 µM) | – | 3 (≈ 9.89 µM) | – | – | 1 (≈ 3.3 µM) | –
